Consider 14 molecules from patent publication US9617283B2, “Bicyclic heterocycle compounds and their uses in therapy” (ASTEX THERAPEUTICS LIMITED, priority 2012, dated 2017).

Test [1] deals with EVSA-T (human breast carcinoma). The test is described as follows: Anti-proliferative activity, Alamar Blue assay, EVSA-T. Format: cell-based. (The colour change of resazurin is a common sign of viable cells or microbes.)
For test [2], the target named is T1, BIR3 domain of human XIAP (residues 252-350) (Homo sapiens, UniProt P98170).
T1 construct: BIR3 domain of human XIAP (residues 252-350); His-tag (cleaved yes); made in house; host or cells: Escherichia coli
The test is described as follows: XIAP in vitro competitive displacement binding assay (fluorescence polarization). The settings on record: percent inhibition (PI) at 0.04 μM; for Xiap IC50 or PI μM: 60 min, dihydrochloride, 0.04 µM; for inhibition at 0.04 µM: 1 h, read-out: Xiap IC50 or PI μM. For orientation: In fluorescence polarisation assays a small probe gives low polarisation when free and higher when bound to something large.

In test [3] the target is T2, BIR3 domain of human cIAP-1 (residues 267-363) (Homo sapiens, UniProt Q13490).
T2 construct: human cIAP-1 (residues 267-363) fused to a GST-tag; GST-tag (cleaved yes); made in house; host or cells: Escherichia coli
The test is described as follows: cIAP-1 in vitro competitive displacement binding assay (fluorescence polarization).

The mark [4] stands for this setting: EVSA-T cell line, 72 hours, Alamar Blue, dihydrochloride, read-out: EVSA-T prolif.
Setting [5] is: Homo sapiens, EVSA-T, read-out: EC50 in EVSA-T cell line assays.
Where [6] appears, read: Homo sapiens, EVSA-T, 72 h, EVSA-T cell line, 72 hours, Alamar Blue, read-out: EVSA-T prolif.

Structures can show the parent of a compound that is named as a salt. Where two headings read alike, the source gives them in different places.

T1 sequence (P98170 252-350): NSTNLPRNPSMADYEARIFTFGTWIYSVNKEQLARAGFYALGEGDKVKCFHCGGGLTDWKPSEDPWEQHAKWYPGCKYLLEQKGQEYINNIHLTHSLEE
T2 sequence (Q13490 267-363): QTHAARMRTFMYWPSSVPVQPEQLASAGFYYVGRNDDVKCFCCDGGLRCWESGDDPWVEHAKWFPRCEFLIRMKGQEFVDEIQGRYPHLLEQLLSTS

With `CCC1CN(C[C@H]2CN[C@H](C)CN2CC(=O)N2CC(C)(C)c3ncc([C@@H](O)c4ccc(F)cc4)cc32)C(=O)CO1` (single isomer, unassigned) [Example 111, (R or S)-6-ethyl-4-{[(2R,5R)-1-(2-{6-[(S)-(4-Fluorophenyl)(hydroxy)methyl]-3,3-dimethyl-1H,2H,3H-pyrrolo[3,2-b]pyridin-1-yl}-2-oxoethyl)-5-methylpiperazin-2-yl]methyl}morpholin-3-one dihydrochloride], the EC50 in test [1] (setting [4]) is 77 nM; in test [1] (setting [5]), below 1000 nM. In addition, the “Xiap IC50 or PI μM” value in test [2] turned out to be 68%@0.04. The “cIAP1 IC50 or PI μM” value in test [3] (percent inhibition (PI) at […], 180 min, dihydrochloride, […]) is 62%@0.012.

As to `CCCC(O)c1cnc2c(c1)N(C(=O)CN1C[C@@H](C)NC[C@@H]1CN1Cc3ccccc3C1=O)CC2(C)C` (single isomer, unassigned) [Example 91, dihydrochloride], the EC50 in test [1] (setting [4]) was 330 nM. Also, the “Xiap IC50 or PI μM” value in test [2] is given as 40%@0.04. For the same molecule, the inhibition at 0.04 µM in test [3] (3 h, percent inhibition (PI) at 0.04 μM, read-out: cIAP1 IC50 or PI μM) was found to be 53%.

With `C[C@@H]1CC(=O)N(C[C@H]2CN[C@H](C)CN2CC(=O)N2CC(C)(C)c3ncc(Cc4ccc(F)cc4F)cc32)C1` [Example 70, (4R)-1-{[(2R,5R)-1-(2-{6-[(2,4-Difluorophenyl)methyl]-3,3-dimethyl-1H,2H,3H-pyrrolo[3,2-b]pyridin-1-yl}-2-oxoethyl)-5-methylpiperazin-2-yl]methyl}-4-methylpyrrolidin-2-one dihydrochloride], the EC50 in test [1] (setting [6]) is 3.2 nM; in test [1] (setting [5]) it was below 1000 nM. The inhibition at 0.04 µM in test [2] turned out to be 55%.

Regarding `C[C@@H]1CN(CC(=O)N2CC(C)(C)c3cnc(Cc4ccc(F)cc4F)cc32)[C@@H](CN2Cc3ccccc3C2=O)CN1` [Example 77, 2-{[(2R,5R)-1-(2-{6-[(2,4-Difluorophenyl)methyl]-3,3-dimethyl-1H,2H,3H-pyrrolo[3,2-c]pyridin-1-yl}-2-oxoethyl)-5-methylpiperazin-2-yl]methyl}-2,3-dihydro-1H-isoindol-1-one dihydrochloride], the EC50 was 0.17 nM in test [1] (setting [6]) and below 1000 nM in test [1] (setting [5]). The inhibition at 0.04 µM in test [2] is 90%.

For `CCCC(F)(F)c1cc2c(cn1)C(C)(C)CN2C(=O)CN1C[C@@H](C)NC[C@@H]1CN1CC(C)=C(C)C1=O` [Example 28, 1-{[(2R,5R)-1-{2-[6-(1,1-Difluorobutyl)-3,3-dimethyl-1H,2H,3H-pyrrolo[3,2-c]pyridin-1-yl]-2-oxoethyl}-5-methylpiperazin-2-yl]methyl}-3,4-dimethyl-2,5-dihydro-1H-pyrrol-2-one, dihydrochloride], the EC50 was 10 nM in test [1] (setting [6]) and below 1000 nM in test [1] (setting [5]). For the same molecule, the inhibition at 0.04 µM in test [2] is 67%.

Take `CC1=C(C)C(=O)N(C[C@H]2CN[C@H](C)CN2CC(=O)N2CC(C)(C)c3cnc(Cc4ccc(F)cc4)cc32)C1` [Example 36, 1-{[(2R,5R)-1-(2-{6-[(4-Fluorophenyl)methyl]-3,3-dimethyl-1H,2H,3H-pyrrolo[3,2-c]pyridin-1-yl}-2-oxoethyl)-5-methylpiperazin-2-yl]methyl}-3,4-dimethyl-2,5-dihydro-1H-pyrrol-2-one dihydrochloride]: the EC50 in test [1] (setting [6]) was 1.7 nM; in test [1] (setting [5]), below 1000 nM. In addition, the inhibition at 0.04 µM in test [2] is 74%.

For `C[C@@H]1CN(CC(=O)N2CC(C)(C)c3cnc(Cc4ccc(F)cc4)cc32)[C@@H](CN2C[C@H](C)N(C)CC2=O)CN1` [Example 107, (5S)-1-{[(2R,5R)-1-(2-{6-[(4-Fluorophenyl)methyl]-3,3-dimethyl-1H,2H,3H-pyrrolo[3,2-c]pyridin-1-yl}-2-oxoethyl)-5-methylpiperazin-2-yl]methyl}-4,5-dimethylpiperazin-2-one dihydrochloride], the EC50 in test [1] (setting [6]) was 11 nM; in test [1] (setting [5]) it was below 1000 nM. For the same molecule, the inhibition at 0.04 µM in test [2] worked out at 67%.

For the molecule `CC1CC(=O)N(C[C@H]2CN[C@H](C)CN2CC(=O)N2CC(C)(C)c3ncc(Cc4ccc(F)cc4)cc32)C1` (stereo partly drawn) [Example 6, 1-{[(2R,5R)-1-(2-{6-[(4-Fluorophenyl)methyl]-3,3-dimethyl-1H,2H,3H-pyrrolo[3,2-b]pyridin-1-yl}-2-oxoethyl)-5-methylpiperazin-2-yl]methyl}-4-methylpyrrolidin-2-one dihydrochloride], the figures for the EC50 in test [1] (setting [6]) and in test [1] (setting [5]) were 1.1 nM and below 1000 nM, respectively. Moreover, the inhibition at 0.04 µM in test [2] was 48%.

Turning to `C[C@@H]1CC(=O)N(C[C@H]2CN[C@H](C)CN2CC(=O)N2CC(C)(C)c3cnc(Cc4ccc(F)cc4F)cc32)C1` [Example 71, (4R)-1-{[(2R,5R)-1-(2-{6-[(2,4-Difluorophenyl)methyl]-3,3-dimethyl-1H,2H,3H-pyrrolo[3,2-c]pyridin-1-yl}-2-oxoethyl)-5-methylpiperazin-2-yl]methyl}-4-methylpyrrolidin-2-one dihydrochloride], the EC50 is 2.5 nM in test [1] (setting [6]) and below 1000 nM in test [1] (setting [5]). Also, the inhibition at 0.04 µM in test [2] came to 64%.

For `C[C@@H]1CN(CC(=O)N2CC(C)(C)c3ncc(Cc4ccc(F)cc4F)cc32)[C@@H](CN2Cc3cc(O)ccc3C2=O)CN1` [Example 105, 2-{[(2R,5R)-1-(2-{6-[(2,4-Difluorophenyl)methyl]-3,3-dimethyl-1H,2H,3H-pyrrolo[3,2-b]pyridin-1-yl}-2-oxoethyl)-5-methylpiperazin-2-yl]methyl}-5-hydroxy-2,3-dihydro-1H-isoindol-1-one dihydrochloride], the EC50 is 6.5 nM in test [1] (setting [6]) and below 1000 nM in test [1] (setting [5]). Further, in test [2], the inhibition at 0.04 µM was determined as 90%.

On to `CCC1CN(C[C@H]2CN[C@H](C)CN2CC(=O)N2CC(C)(C)c3cnc(Cc4ccc(F)cc4F)cc32)C(=O)CO1` (single isomer, unassigned) [Example 80, 4-{[(2R,5R)-1-(2-{6-[(2,4-Difluorophenyl)methyl]-3,3-dimethyl-1H,2H,3H-pyrrolo[3,2-c]pyridin-1-yl}-2-oxoethyl)-5-methylpiperazin-2-yl]methyl}-(R or S)-6-ethylmorpholin-3-one dihydrochloride], for which the figures for the EC50 in test [1] (setting [6]) and in test [1] (setting [5]) were 1.8 nM and below 1000 nM, respectively. Also, the inhibition at 0.04 µM in test [2] stood at 46%.

On to `CCCC(F)(F)c1cc2c(cn1)C(C)(C)CN2C(=O)CN1C[C@@H](C)NC[C@@H]1CN1C[C@H](C)CC1=O` [Example 72, (4R)-1-{[(2R,5R)-1-{2-[6-(1,1-Difluorobutyl)-3,3-dimethyl-1H,2H,3H-pyrrolo[3,2-c]pyridin-1-yl]-2-oxoethyl}-5-methylpiperazin-2-yl]methyl}-4-methylpyrrolidin-2-one dihydrochloride], for which the figures for the EC50 in test [1] (setting [6]) and in test [1] (setting [5]) were 27 nM and below 1000 nM, respectively. Further, in test [2], the inhibition at 0.04 µM is 79%.

For the molecule `C[C@@H]1CN(CC(=O)N2CC(C)(C)c3ncc(Cc4ccc(F)cc4)cc32)[C@@H](CN2CC(C)(C)CC2=O)CN1` [Example 1, 1-{[(2R,5R)-1-(2-{6-[(4-Fluorophenyl)methyl]-3,3-dimethyl-1H,2H,3H-pyrrolo[3,2-b]pyridin-1-yl}-2-oxoethyl)-5-methylpiperazin-2-yl]methyl}-4,4-dimethylpyrrolidin-2-one dihydrochloride], the EC50 was 2.2 nM in test [1] (setting [6]) and below 1000 nM in test [1] (setting [5]). In test [2], the inhibition at 0.04 µM was 54%.

With `C[C@@H]1CN(CC(=O)N2CC(C)(C)c3ncc(Cc4ccc(F)cc4)cc32)[C@@H](CN2Cc3ccncc3C2=O)CN1` [Example 19, 2-{[(2R,5R)-1-(2-{6-[(4-Fluorophenyl)methyl]-3,3-dimethyl-1H,2H,3H-pyrrolo[3,2-b]pyridin-1-yl}-2-oxoethyl)-5-methylpiperazin-2-yl]methyl}-1H,2H,3H-pyrrolo[3,4-c]pyridin-3-one, dihydrochloride], the figures for the EC50 in test [1] (setting [6]) and in test [1] (setting [5]) were 2.4 nM and below 1000 nM, respectively. Moreover, the inhibition at 0.04 µM in test [2] came out at 64%.
